# Measured values: article PMC8854719, “Phase 1A/1B dose-escalation and -expansion study to evaluate the safety, pharmacokinetics, food effects and antitumor activity of pamiparib in advanced solid tumours” (British Journal of Cancer, 2021)
# Legend:
# [1] = Food-effects cohort: PK fasted vs high-fat meal; format: in vivo, human
# Description: Patients in the food-effects cohort received a single dose of pamiparib 60 mg (based on the RP2D) on day 1 of cycle 1, followed by a 5-day washout; patients then received another single dose of 60 mg on day 6. Seven patients in sequence 1 (fast followed by fed) received pamiparib after a ≥ 10-h fast on day 1 and after consuming a standard high-fat meal (described in the Supplemental Appendix) 30 min prior to drug administration on day 6. Six patients in sequence 2 (fed followed by fast) received pamiparib after a high-fat meal on day 1 and after a ≥ 10-h fast on Day 6. From day 8 of cycle 1 onward, patients received 60-mg BID treatment.
# Pamiparib in plasma was measured using a validated liquid chromatography-tandem–mass spectrometry assay with a lower limit of quantification of 1.0 ng/mL. The collection schedule for blood samples used to assess the PK profile is presented in the Supplemental Appendix. Summary PK parameters, including area under the concentration-time curve from time 0 to 9 h (AUC0-9) or infinity (AUC0-inf), maximal plasma concentration (Cmax) and time to maximal plasma concentration (Tmax), were estimated. The pharmacodynamic (PD) activity of pamiparib was explored through the evaluation of poly(ADP-ribose [PAR]) formation in peripheral blood mononuclear cells (PBMCs) after pamiparib administration. The schedule for blood sample collection (PK and PBMCs) and additional assessment information for PAR levels in PBMCs and pharmacodynamic activity is presented in the Supplemental Appendix. Antitumor activity was assessed by radiographic imaging (computed tomography or magnetic resonance imaging) during screening, within 28 days of first pamiparib dose, every 6 weeks in the first 12 months and every 9 weeks thereafter.
# An example of a recommended United States Food and Drug Administration (US FDA) standard high-fat meal comprises two eggs fried in butter, two strips of bacon, two slices of toast with butter, 4 ounces of hash brown potatoes, and 8 ounces of whole milk.
# The PK profile of pamiparib was assessed based on blood samples collected at predose and 0.5, 1, 2, 4, 6, 9, 24, and 48 hours postdose on Days 1-3 and then at predose and 0.5, 1, 2, 4, 6, and 9 hours postdose on Day 17 of Cycle 1 in Phase 1A. Sparse PK samples were collected in phase 1B Part A. The food effect on the PK of pamiparib was assessed based on blood samples collected at predose and 0.5, 1, 2, 4, 7, 24, and 48 hours postdose on Day 1 and Day 6 of Cycle 1 in phase 1B Part B.
# [2] = system: epithelial ovarian cancer (EOC); assay: GCIG CA-125 response; format: in vivo, human; conditions: CA-125–evaluable population (n=12)
# Description: (§1) Tumour response was evaluated by RECIST v1.1. For patients with ovarian cancer, tumour response was assessed per RECIST v1.1 and by Gynecologic Cancer Intergroup (GCIG) CA-125 criteria. Tumour response for patients with prostate cancer was assessed by Prostate Cancer Clinical Trials Working Group 2 (PCWG2) criteria. Objective response rate (ORR) was defined as the proportion of patients achieving a confirmed complete response (CR) or partial response (PR) on study treatment. Blood tumour antigens (e.g., carcinoembryonic antigen for colorectal cancer, CA-125 for ovarian cancer and prostate-specific antigen [PSA] for mCRPC) were assessed during screening, every 6 weeks after the first pamiparib dose in the first 12 months, and every 9 weeks thereafter.
# The safety population comprised all patients in the dose-escalation and dose-expansion phases who received at least one dose of pamiparib (Supplementary Table S2). Patients in the safety analysis set for whom valid pamiparib PK parameters were estimated and for whom evaluable PD results were available represented the PK population and the PD population, respectively. The efficacy-evaluable population included patients in the safety analysis set who had at least one evaluable postbaseline tumour assessment or those who discontinued due to clinical disease progression or early death before tumour assessment could be performed. […]
# [3] = system: metastatic castration-resistant prostate cancer (mCRPC); assay: PCWG2 response and PSA progression; format: in vivo, human
# Description: as §1
# The safety population comprised all patients in the dose-escalation and dose-expansion phases who received at least one dose of pamiparib (Supplementary Table S2). Patients in the safety analysis set for whom valid pamiparib PK parameters were estimated and for whom evaluable PD results were available represented the PK population and the PD population, respectively. The efficacy-evaluable population included patients in the safety analysis set who had at least one evaluable postbaseline tumour assessment or those who discontinued due to clinical disease progression or early death before tumour assessment could be performed. The EOC efficacy-evaluable population was a subset of the overall efficacy-evaluable population that included patients with EOC from both the dose-escalation and dose-expansion phases. Patients in the dose-expansion phase without measurable disease at baseline per RECIST v1.1 were excluded from the efficacy-evaluable population.
# [4] = parameters: method as in PMID 33128299; conditions: humans; current study and Phase 1 study in ovarian cancer; cited from earlier work
# ovarian cancer = conditions: Phase 1 study in China (NCT03333915), high-grade ovarian cancer refractory or resistant to platinum; cited from earlier work
# [5] = single 60 mg dose, high-fat breakfast vs fasted
smiles,measurement,setting,value
C[C@]12CCCN1CC1=NNC(=O)c3cc(F)cc4[nH]c2c1c34 [pamiparib],Food effects on pharmacokinetics (in words),[1]; 60 mg single dose,no food effects
same,Tmax,"[1]; human, plasma, oral, single 60 mg dose with a high-fat breakfast, read-out: Median Tmax",7 h
same,Reduction of AUC0-inf with food,[1]; [5],12%
same,Reduction of Cmax with food,[1]; [5],41%
same,GCIG CA-125 response rate,[2],83.3%
same,Median time to CA-125 response,[2],1.38 months
same,Median time to PSA progression,[3]; PSA-evaluable population (n=6),4.2 months
same,PSA progression rate,[3]; PSA-evaluable population (n=6),33.3%
same,Responders per PCWG2 criteria (in words),"[3]; mCRPC, phase 1B Part A",No patients with mCRPC in phase 1B Part A were considered responders
same,Bioavailability,[4],"high, with near-complete absorption"
same,Clinical benefit rate,ovarian cancer,62.5%
same,ORR,ovarian cancer,25.0%
